Assay results published in patent publication US20060252807A1, “Novel ortho-terphenyl inhibitors of p38 kinase and methods of treating inflammatory disorders” (Kalypsys, Inc., priority 2005, published 2006).

What follows are molecules tested against T1, active p38 alpha enzyme (Upstate Biotechnology) (Homo sapiens, UniProt Q16539) (assay: p38α biochemical assay (ATP turnover, luminescent detection, Cambrex PKlight)). Conditions: p38α biochemical assay, Table 1 Biological Activity.
T1 construct: purchased Upstate Biotechnology
Summary of the method: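 In this kinase reaction, p38α used MapkapK2 as phosphorylation substrate at low ATP (1.4 uM final) over 2 hours at 30C, and activity was followed as ATP turnover by luminescence.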

T1 sequence (Q16539 whole entry): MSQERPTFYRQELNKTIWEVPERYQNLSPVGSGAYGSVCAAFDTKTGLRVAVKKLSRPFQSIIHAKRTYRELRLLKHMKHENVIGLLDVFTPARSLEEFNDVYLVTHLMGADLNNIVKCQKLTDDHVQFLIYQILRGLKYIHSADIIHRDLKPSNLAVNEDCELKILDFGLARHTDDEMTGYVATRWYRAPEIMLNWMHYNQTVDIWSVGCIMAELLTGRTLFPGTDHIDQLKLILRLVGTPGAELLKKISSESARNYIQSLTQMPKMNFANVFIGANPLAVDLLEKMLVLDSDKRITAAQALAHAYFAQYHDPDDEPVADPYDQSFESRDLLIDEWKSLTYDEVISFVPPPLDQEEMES

| IC50 [nM] | Compound |
| --- | --- |
| ≤ 1000 | CC(C)NC(=O)c1csc(-c2oc(CNC(=O)CCc3nc4ccccc4[nH]3)nc2-c2ccc(F)cc2)n1 [Example 250] |
| ≤ 1000 | CC(C)NC(=O)c1csc(-c2oc(CNC(=O)c3cccc(Cl)c3Cl)nc2-c2ccc(F)cc2)n1 [Example 251] |
| ≤ 1000 | CC(C)NC(=O)c1csc(-c2oc(CNC(=O)c3ccc(Cl)cc3Cl)nc2-c2ccc(F)cc2)n1 [Example 252] |
| ≤ 1000 | CC(C)NC(=O)c1csc(-c2oc(CNC(=O)c3cc(Cl)ccc3Cl)nc2-c2ccc(F)cc2)n1 [Example 253] |
| > 1000 | CC(C)NC(=O)c1csc(-c2oc(CNC(=O)c3cc(F)c(F)c(O)c3F)nc2-c2ccc(F)cc2)n1 [Example 254] |
| > 1000 | CC(C)NC(=O)c1csc(-c2oc(CNC(=O)/C=C/c3ccc4c(c3)OCO4)nc2-c2ccc(F)cc2)n1 [Example 255] |
| > 1000 | Cc1ccc(C(=O)CCC(=O)NCc2nc(-c3ccc(F)cc3)c(-c3nc(C(=O)NC(C)C)cs3)o2)cc1 [Example 256] |
| > 1000 | CCCCCc1ccc(C(=O)NCc2nc(-c3ccc(F)cc3)c(-c3nc(C(=O)NC(C)C)cs3)o2)cc1 [Example 257] |
| ≤ 1000 | CC(C)NC(=O)c1csc(-c2oc(CNC(=O)c3cc(F)c(F)cc3Cl)nc2-c2ccc(F)cc2)n1 [Example 258] |
| > 1000 | CC(C)NC(=O)c1csc(-c2oc(CNC(=O)c3cc(F)c(Cl)cc3F)nc2-c2ccc(F)cc2)n1 [Example 259] |
| ≤ 1000 | CCN(CC)c1ccc(C(=O)NCc2nc(-c3ccc(F)cc3)c(-c3nc(C(=O)NC(C)C)cs3)o2)cc1 [Example 260] |
| ≤ 1000 | COc1cc(/C=C/C(=O)NCc2nc(-c3ccc(F)cc3)c(-c3nc(C(=O)NC(C)C)cs3)o2)ccc1O [Example 261] |
| ≤ 1000 | COc1ccc(/C=C/C(=O)NCc2nc(-c3ccc(F)cc3)c(-c3nc(C(=O)NC(C)C)cs3)o2)cc1O [Example 262] |
| > 1000 | CCCCOc1ccc(C(=O)NCc2nc(-c3ccc(F)cc3)c(-c3nc(C(=O)NC(C)C)cs3)o2)cc1 [Example 263] |
| ≤ 1000 | CC(C)NC(=O)c1csc(-c2oc(CNC(=O)c3cc4cc(Cl)ccc4o3)nc2-c2ccc(F)cc2)n1 [Example 264] |
| ≤ 1000 | COc1ccc([N+](=O)[O-])c(C(=O)NCc2nc(-c3ccc(F)cc3)c(-c3nc(C(=O)NC(C)C)cs3)o2)c1 [Example 265] |
| ≤ 1000 | COc1cc(C(=O)NCc2nc(-c3ccc(F)cc3)c(-c3nc(C(=O)NC(C)C)cs3)o2)cc(OC)c1O [Example 266] |
| > 1000 | CC(C)NC(=O)c1csc(-c2oc(CNC(=O)c3ccccc3-c3ccccc3)nc2-c2ccc(F)cc2)n1 [Example 267] |
| > 1000 | CC(C)NC(=O)c1csc(-c2oc(CNC(=O)c3cccc(Br)c3)nc2-c2ccc(F)cc2)n1 [Example 268] |
| > 1000 | CC(C)NC(=O)c1csc(-c2oc(CNC(=O)c3ccc(Br)cc3)nc2-c2ccc(F)cc2)n1 [Example 269] |
| ≤ 1000 | CC(C)NC(=O)c1csc(-c2oc(CNC(=O)c3cccc(Cl)c3[N+](=O)[O-])nc2-c2ccc(F)cc2)n1 [Example 270] |
| ≤ 1000 | CC(C)NC(=O)c1csc(-c2oc(CNC(=O)c3cc([N+](=O)[O-])ccc3Cl)nc2-c2ccc(F)cc2)n1 [Example 271] |
| ≤ 1000 | CC(C)NC(=O)c1csc(-c2oc(CNC(=O)c3ccc([N+](=O)[O-])cc3Cl)nc2-c2ccc(F)cc2)n1 [Example 272] |

| IC50 [nM] | Compound |
| --- | --- |
| ≤ 1000 | CC(C)NC(=O)c1csc(-c2oc(CNC(=O)c3ccc(Cl)cc3[N+](=O)[O-])nc2-c2ccc(F)cc2)n1 [Example 273] |
| > 1000 | CC(C)NC(=O)c1csc(-c2oc(CNC(=O)c3ccc(Cl)c([N+](=O)[O-])c3)nc2-c2ccc(F)cc2)n1 [Example 274] |
| ≤ 1000 | CC(C)NC(=O)c1csc(-c2oc(CNC(=O)c3cc(Cl)ccc3[N+](=O)[O-])nc2-c2ccc(F)cc2)n1 [Example 275] |
| > 1000 | CC(C)NC(=O)c1csc(-c2oc(CNC(=O)c3cccc(Br)n3)nc2-c2ccc(F)cc2)n1 [Example 276] |
| ≤ 1000 | CC(C)NC(=O)c1csc(-c2oc(CNC(=O)c3cncc(Br)c3)nc2-c2ccc(F)cc2)n1 [Example 277] |
| ≤ 1000 | CC(C)NC(=O)c1csc(-c2oc(CNC(=O)c3cc(F)c(F)cc3[N+](=O)[O-])nc2-c2ccc(F)cc2)n1 [Example 278] |
| > 1000 | CC(C)NC(=O)c1csc(-c2oc(CNC(=O)Cc3ccc(C(F)(F)F)cc3)nc2-c2ccc(F)cc2)n1 [Example 279] |
| > 1000 | CC(C)Cc1ccc(C(C)C(=O)NCc2nc(-c3ccc(F)cc3)c(-c3nc(C(=O)NC(C)C)cs3)o2)cc1 (stereo not shown) [Example 280] |
| ≤ 1000 | CC(C)NC(=O)c1csc(-c2oc(CNC(=O)c3cc(Cl)c(O)c(Cl)c3)nc2-c2ccc(F)cc2)n1 [Example 281] |
| ≤ 1000 | CC(C)NC(=O)c1csc(-c2oc(CNC(=O)c3c(F)c(F)c(F)c(F)c3F)nc2-c2ccc(F)cc2)n1 [Example 282] |
| ≤ 1000 | COc1cc(OC)c(C(=O)NCc2nc(-c3ccc(F)cc3)c(-c3nc(C(=O)NC(C)C)cs3)o2)c(OC)c1 [Example 283] |
| > 1000 | COc1cc(OC)c(C(=O)NCc2nc(-c3ccc(F)cc3)c(-c3nc(C(=O)NC(C)C)cs3)o2)cc1OC [Example 284] |
| > 1000 | COc1cc(C(=O)NCc2nc(-c3ccc(F)cc3)c(-c3nc(C(=O)NC(C)C)cs3)o2)cc(OC)c1OC [Example 285] |
| > 1000 | COc1ccc(C(=O)NCc2nc(-c3ccc(F)cc3)c(-c3nc(C(=O)NC(C)C)cs3)o2)c(OC)c1OC [Example 286] |
| > 1000 | CC(C)NC(=O)c1csc(-c2oc(CNC(=O)c3ccccc3Cc3ccccc3)nc2-c2ccc(F)cc2)n1 [Example 287] |
| > 1000 | CC(C)NC(=O)c1csc(-c2oc(CNC(=O)c3cccc(Oc4ccccc4)c3)nc2-c2ccc(F)cc2)n1 [Example 288] |
| > 1000 | CC(C)NC(=O)c1csc(-c2oc(CNC(=O)c3ccccc3Oc3ccccc3)nc2-c2ccc(F)cc2)n1 [Example 289] |
| > 1000 | CC(C)NC(=O)c1csc(-c2oc(CNC(=O)c3ccc(Oc4ccccc4)cc3)nc2-c2ccc(F)cc2)n1 [Example 290] |
| ≤ 1000 | CC(C)NC(=O)c1csc(-c2oc(CNC(=O)c3ccc(-c4ccc(O)cc4)cc3)nc2-c2ccc(F)cc2)n1 [Example 291] |
| > 1000 | Cc1cc(C(=O)NCc2nc(-c3ccc(F)cc3)c(-c3nc(C(=O)NC(C)C)cs3)o2)ccc1Br [Example 292] |
| > 1000 | Cc1ccc(C(=O)NCc2nc(-c3ccc(F)cc3)c(-c3nc(C(=O)NC(C)C)cs3)o2)cc1Br [Example 293] |
| > 1000 | CC(C)NC(=O)c1csc(-c2oc(CNC(=O)Cc3ccc(Br)cc3)nc2-c2ccc(F)cc2)n1 [Example 294] |
| > 1000 | CC(C)NC(=O)c1csc(-c2oc(CNC(=O)C3CCCN3C(=O)OC(C)(C)C)nc2-c2ccc(F)cc2)n1 (stereo not shown) [Example 295] |

| IC50 [nM] | Compound |
| --- | --- |
| > 1000 | CC(C)NC(=O)c1csc(-c2oc(CNC(=O)/C=C/c3ccccc3C(F)(F)F)nc2-c2ccc(F)cc2)n1 [Example 296] |
| > 1000 | CCOc1ccc2ccccc2c1C(=O)NCc1nc(-c2ccc(F)cc2)c(-c2nc(C(=O)NC(C)C)cs2)o1 [Example 297] |
| > 1000 | CC(C)NC(=O)c1csc(-c2oc(CNC(=O)C(NC(=O)OC(C)(C)C)C(C)C)nc2-c2ccc(F)cc2)n1 (stereo not shown) [Example 298] |
| > 1000 | CC(C)NC(=O)c1csc(-c2oc(CNC(=O)C(NC(=O)OC(C)(C)C)C(C)C)nc2-c2ccc(F)cc2)n1 (stereo not shown) [Example 299] |
| ≤ 1000 | CC(C)NC(=O)c1csc(-c2oc(CNC(=O)CCc3cccc(C(F)(F)F)c3)nc2-c2ccc(F)cc2)n1 [Example 300] |
| ≤ 1000 | CC1=NN(c2ccc(C(=O)NCc3nc(-c4ccc(F)cc4)c(-c4nc(C(=O)NC(C)C)cs4)o3)cc2)C(=O)C1 [Example 301] |
| ≤ 1000 | Cc1nc(Br)sc1C(=O)NCc1nc(-c2ccc(F)cc2)c(-c2nc(C(=O)NC(C)C)cs2)o1 [Example 302] |
| ≤ 1000 | CC(C)NC(=O)c1csc(-c2oc(CNC(=O)c3c4ccccc4cc4ccccc34)nc2-c2ccc(F)cc2)n1 [Example 303] |
| ≤ 1000 | CC(C)NC(=O)c1csc(-c2oc(CNC(=O)c3cc(C(C)C)cc(C(C)C)c3O)nc2-c2ccc(F)cc2)n1 [Example 304] |
| ≤ 1000 | CC(=O)NC(Cc1ccc(O)cc1)C(=O)NCc1nc(-c2ccc(F)cc2)c(-c2nc(C(=O)NC(C)C)cs2)o1 (stereo not shown) [Example 305] |
| ≤ 1000 | CC(C)NC(=O)c1csc(-c2oc(CNC(=O)c3c(Cl)cc(Cl)cc3Cl)nc2-c2ccc(F)cc2)n1 [Example 306] |
| ≤ 1000 | COc1cc(C(=O)NCc2nc(-c3ccc(F)cc3)c(-c3nc(C(=O)NC(C)C)cs3)o2)c([N+](=O)[O-])cc1OC [Example 307] |
| ≤ 1000 | CC(C)NC(=O)c1csc(-c2oc(CNC(=O)c3ccc(OCc4ccccc4)cc3)nc2-c2ccc(F)cc2)n1 [Example 308] |
| > 1000 | CC(C)NC(=O)c1csc(-c2oc(CNC(=O)CCc3ccccc3Br)nc2-c2ccc(F)cc2)n1 [Example 309] |
| > 1000 | CC(C)NC(=O)c1csc(-c2oc(CNC(=O)CCc3cccc(Br)c3)nc2-c2ccc(F)cc2)n1 [Example 310] |
| > 1000 | CC(C)NC(=O)c1csc(-c2oc(CNC(=O)C3CCCCN3C(=O)OC(C)(C)C)nc2-c2ccc(F)cc2)n1 (stereo not shown) [Example 311] |
| ≤ 1000 | CC(C)NC(=O)c1csc(-c2oc(CNC(=O)c3ccc(Oc4cccc(O)c4)cc3)nc2-c2ccc(F)cc2)n1 [Example 312] |
| ≤ 1000 | COc1ccc2cc(C(C)C(=O)NCc3nc(-c4ccc(F)cc4)c(-c4nc(C(=O)NC(C)C)cs4)o3)ccc2c1 (stereo not shown) [Example 313] |
| ≤ 1000 | CC(C)NC(=O)c1csc(-c2oc(CNC(=O)C3CN(C(=O)OC(C)(C)C)CCN3)nc2-c2ccc(F)cc2)n1 (stereo not shown) [Example 314] |
| ≤ 1000 | CC(C)NC(=O)c1csc(-c2oc(CNC(=O)C3CN(C(=O)OC(C)(C)C)CCN3)nc2-c2ccc(F)cc2)n1 (stereo not shown) [Example 315] |
| ≤ 1000 | COc1ccc(Br)c(C(=O)NCc2nc(-c3ccc(F)cc3)c(-c3nc(C(=O)NC(C)C)cs3)o2)c1 [Example 316] |
